Article PMC10690365, “Improved catalytic performance and molecular insight for lipoxygenase from Enterovibrio norvegicus via directed evolution” (Frontiers in Bioengineering and Biotechnology, 2023)
Where a chain is given by its changes, count along the chain named.

How the values were obtained:
[1] = target: T1, EnLOX (wild-type, WT); lipoxygenase from Enterovibrio norvegicus (Enterovibrio norvegicus, UniProt A0A1I5T4S6); experiment: absorbance at […] nm (hydroperoxide formation), Michaelis-Menten fit; type: biochemical; settings: 20 mM Tris-HCl pH 8.0, 50 °C; substrate range printed as 10 to 300 mM (unit doubtful against the Km)
T1 construct: primer-encoded N-terminus MHRKKT
T1 sequence (A0A1I5T4S6 1-726): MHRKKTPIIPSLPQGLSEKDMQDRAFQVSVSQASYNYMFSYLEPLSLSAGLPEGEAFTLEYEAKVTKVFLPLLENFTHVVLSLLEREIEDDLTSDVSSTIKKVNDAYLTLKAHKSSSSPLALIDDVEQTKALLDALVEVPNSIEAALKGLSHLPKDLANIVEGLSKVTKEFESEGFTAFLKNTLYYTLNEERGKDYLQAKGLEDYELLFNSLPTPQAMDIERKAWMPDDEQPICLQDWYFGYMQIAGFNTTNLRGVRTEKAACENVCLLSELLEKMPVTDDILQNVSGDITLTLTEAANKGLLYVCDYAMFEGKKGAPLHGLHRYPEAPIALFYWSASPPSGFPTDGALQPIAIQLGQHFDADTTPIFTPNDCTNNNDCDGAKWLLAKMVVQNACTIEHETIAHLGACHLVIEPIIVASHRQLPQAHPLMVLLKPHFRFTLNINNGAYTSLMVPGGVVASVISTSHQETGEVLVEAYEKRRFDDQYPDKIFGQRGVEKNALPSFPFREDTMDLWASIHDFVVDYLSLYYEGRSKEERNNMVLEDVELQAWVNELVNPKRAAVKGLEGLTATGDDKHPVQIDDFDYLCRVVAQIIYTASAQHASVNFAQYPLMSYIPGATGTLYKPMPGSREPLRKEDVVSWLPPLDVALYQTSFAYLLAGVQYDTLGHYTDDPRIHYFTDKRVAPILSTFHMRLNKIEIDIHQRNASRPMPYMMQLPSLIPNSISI

[2] = target: T2, EnLOX (wild-type, WT); lipoxygenase from Enterovibrio norvegicus (Enterovibrio norvegicus, UniProt A0A1I5T4S6, D95E/T99A/A121H/S142N/N444W/S613G, form not given); experiment: as above; type: biochemical; settings: 20 mM Tris-HCl pH 8.0, 50 °C; substrate range printed as 10 to 300 mM (unit doubtful against the Km); mutant EAHNWG (F-12E); printed nucleotide changes do not fully match the amino acid positions
T2 construct: primer-encoded N-terminus MHRKKT
T2 sequence (A0A1I5T4S6 1-726 D95E/T99A/A121H/S142N/N444W/S613G): T1 sequence (A0A1I5T4S6 1-726) with D95E, T99A, A121H, S142N, N444W, S613G

Km [1]: 3.49 ± 0.21 µM
Km [2]: 2.36 ± 0.14 µM
SMILES: CCCCC/C=C\C/C=C\CCCCCCCC(=O)O [linoleic acid]
